Experiments:
[1] = tested on: angiogenesis; experiment: Steroids tested with heparin and heparin fragments against angiogenesis
Source text: Deltacortisone has not previously been disclosed for use in combination with heparin fragments generally, or pentosan polysulfate.

[2] = tested on: tumor angiogenesis; conditions: hamster cheek pouch, under certain conditions; cited from earlier work
[3] = tested on: transitional cell carcinoma; experiment: Subcutaneous transitional cell carcinoma in mice, oral or injected therapy; type: in vivo
Experimental: 100 mice injected with live transitional cell carcinoma subcutaneously, and were grown to a maximum size of 2 cm prior to therapy. The mice were given SP₅₄ and hydrocortisone orally and by injection. The composition was orally administered with SP₅₄ at 0.06 mg/ml and hydrocortisone at 0.5 mg/ml in drinking water. In others the composition was injected with 0.66 mg/ml SP₅₄ and hydrocortisone at 3 mg/ml twice daily, 0.55 ml.

[4] = cited from earlier work

SMILES | overcoming angiogenesis [1] | other results
C[C@]12C[C@H](O)[C@H]3[C@@H](CCC4=CC(=O)CC[C@@]43C)[C@@H]1CC[C@@H]2C(=O)CO [corticosterone] | ineffective | –
C[C@H]1C[C@@H]2[C@H]([C@@H](O)C[C@@]3(C)[C@H]2CC[C@]3(O)C(=O)CO)[C@@]2(C)C=CC(=O)C=C12 [6 alpha-methyl-prednisolone] | – | effect on tumor angiogenesis [2]: partially suppressed
C[C@]12CCC(=O)C=C1CC[C@@H]1[C@@H]2[C@@H](O)C[C@@]2(C)[C@H]1CC[C@]2(O)C(=O)CO [hydrocortisone] | – | effect on tumor ([3]; SP₅₄ eliminated from treatment): regression of tumor; lung metastasis ([3]; mice with transitional cell carcinoma after treatment): found to have lung metastasis
C[C@]12C=CC(=O)C=C1CC[C@@H]1[C@@H]2C(=O)C[C@@]2(C)[C@H]1CC[C@]2(O)C(=O)CO [Deltacortisone] | – | water solubility [4]: not water soluble to a sufficiently substantial extent
CC(=O)[C@H]1CC[C@H]2[C@@H]3CC=C4C[C@@H](O)CC[C@]4(C)[C@H]3CC[C@]12C [pregnenolone] | ineffective | –
CC(=O)[C@H]1CC[C@H]2[C@@H]3CCC4=CC(=O)CC[C@]4(C)[C@H]3CC[C@]12C [progesterone] | ineffective | –
CC(C)CCC[C@@H](C)[C@H]1CC[C@H]2[C@@H]3CC=C4C[C@@H](O)CC[C@]4(C)[C@H]3CC[C@]12C [cholesterol] | ineffective | –
C[C@]12CC[C@H]3[C@@H](CCC4=CC(=O)CC[C@@]43C)[C@@H]1CC[C@@H]2O [testosterone] | ineffective | –
C[C@]12CCC(=O)C=C1CC[C@@H]1[C@@H]2CC[C@@]2(C)[C@H]1CC[C@]2(O)C(=O)CO [cortexolone] | ineffective | –
